# * marks the point of attachment. Dansyl = CN(C)c1cccc2c(S(=O)(=O)*)cccc12
# What was measured:
# human CP4H1 [1] = target: T1, human CP4H1 (Homo sapiens, UniProt P13674); experiment: Inhibition of human CP4H1 activity by alkene isosteres; type: biochemical; settings: for relative inhibitory potency, cis versus trans Cbz isosteres: Cbz isostere 1.00 mM, CbzGPPGOEt 1.00 mM as substrate, pH 7.8, three independent experiments; for relative inhibitory potency, cis versus trans Cbz isosteres / inhibition of catalysis by human CP4H: α-ketoglutarate 1.00 mM; for inhibition of catalysis by human CP4H: dansyl isostere 100 µM, dansylGPPGOEt 0.50 mM, pH 7.8, 30 °C, mean (± SD) of three independent experiments
# T1 sequence (P13674 18-534): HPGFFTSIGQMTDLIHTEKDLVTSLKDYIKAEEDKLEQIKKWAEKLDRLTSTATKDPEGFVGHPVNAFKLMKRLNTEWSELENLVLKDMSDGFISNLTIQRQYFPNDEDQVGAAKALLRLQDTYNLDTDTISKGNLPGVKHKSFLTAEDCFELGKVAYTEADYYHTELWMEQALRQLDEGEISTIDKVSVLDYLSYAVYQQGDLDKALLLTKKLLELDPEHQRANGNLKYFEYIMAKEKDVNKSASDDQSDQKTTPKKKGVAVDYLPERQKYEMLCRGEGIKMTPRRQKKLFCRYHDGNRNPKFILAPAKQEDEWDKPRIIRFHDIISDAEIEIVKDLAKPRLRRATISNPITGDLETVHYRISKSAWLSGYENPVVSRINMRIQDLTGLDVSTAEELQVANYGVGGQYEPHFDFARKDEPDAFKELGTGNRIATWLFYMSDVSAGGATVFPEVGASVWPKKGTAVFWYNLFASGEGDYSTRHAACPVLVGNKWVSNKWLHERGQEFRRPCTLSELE
# T1 sequence (P07237 18-508 partner): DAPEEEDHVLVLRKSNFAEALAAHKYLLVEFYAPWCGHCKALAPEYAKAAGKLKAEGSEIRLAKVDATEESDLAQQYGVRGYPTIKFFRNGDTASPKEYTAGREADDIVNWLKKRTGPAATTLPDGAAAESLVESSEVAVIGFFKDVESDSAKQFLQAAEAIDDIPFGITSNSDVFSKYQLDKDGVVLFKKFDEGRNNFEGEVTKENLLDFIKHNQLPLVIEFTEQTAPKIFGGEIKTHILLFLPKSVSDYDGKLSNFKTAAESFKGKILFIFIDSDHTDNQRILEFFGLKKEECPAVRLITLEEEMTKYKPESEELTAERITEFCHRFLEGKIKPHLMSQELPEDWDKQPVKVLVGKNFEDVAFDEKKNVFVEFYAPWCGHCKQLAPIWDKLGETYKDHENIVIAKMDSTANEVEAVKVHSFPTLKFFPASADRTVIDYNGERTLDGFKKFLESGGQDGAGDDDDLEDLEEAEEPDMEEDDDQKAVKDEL
# human CP4H1 [2] = target: T1, human CP4H1; experiment: UPLC assay of model peptides and isosteres as substrates; type: biochemical
# [3] = tested on: C. reinhardtii P4H-1 (CrP4H-1); experiment: UPLC assay of dansyl peptides as substrates; type: biochemical, Chlamydomonas reinhardtii; settings: for hydroxylation of dansyl isosteres by CrP4H-1: UPLC, data not shown
# [4] = tested on: C. reinhardtii P4H-1 (CrP4H-1); settings: isostere 100 µM, dansylGPPGOEt 0.50 mM, α-ketoglutarate 1.00 mM, NHis6-CrP4H-1 1.2 µM, 30 °C, 1 h, UPLC; three independent experiments
# CP4H = settings: a CP4H; cited from earlier work
compound,measurement,setting,value
CbzGPtransPGOEt [Compound 4],"relative inhibitory potency, cis versus trans Cbz isosteres",human CP4H1 [1],the cis isostere inhibits with greater potency than does the trans isostere
CbzGPcisPGOEt [Compound 6],"relative inhibitory potency, cis versus trans Cbz isosteres",human CP4H1 [1],the cis isostere inhibits with greater potency than does the trans isostere
dansylGlyProProGlyOEt [Compound 1],kinetic pattern of turnover,"human CP4H1 [2]; dansylGPPGOEt 58–1860 µM, α-ketoglutarate 1.00 mM, pH 7.8, 30 °C",substrate inhibition
same,substrate inhibition at saturating α-ketoglutarate,"human CP4H1 [2]; saturating concentrations of α-ketoglutarate, human CP4H1",observed even at saturating concentrations of α-ketoglutarate
same,kinetic pattern of turnover (CrP4H-1),"[3]; dansylGPPGOEt 212–2120 µM, α-ketoglutarate 1.00 mM",substrate inhibition phenomenon similar to that observed for human CP4H1
"CCOC(=O)CNC(=O)[C@@H]1CCC/C1=C/[C@@H]1CCCN1C(=O)CNS(=O)(=O)c1cccc2c(N(C)C)cccc12 [Compound 5, dansylGPcisPGOEt]",IC50,human CP4H1 [1],75 ± 6 µM
same,Ki,human CP4H1 [1],56 ± 13 µM
same,inhibition of catalysis by human CP4H,human CP4H1 [1],inhibitors of catalysis by human CP4H
same,hydroxylation of dansyl isosteres by CrP4H-1,[3],did not observe hydroxylation
same,inhibition of CrP4H-1,[4],served as inhibitors of CrP4H-1
dansylGlyProProGlyOEt (Dansyl-GPPG-OEt; SMILES CCOC(=O)CNC(=O)[C@@H]1CCCN1C(=O)[C@@H]1CCCN1C(=O)CNS(=O)(=O)c1cccc2c(N(C)C)cccc12) [Compound 1],Ki,"human CP4H1 [2]; read-out: Ki (dissociation constant for substrate binding in an inhibitory manner), substrate-inhibition fit (R^2 = 0.98), dansylGPPGOEt 58–1860 µM, α-ketoglutarate 1.00 mM, CP4H1 100 nM, pH 7.8, 30 °C, 15 min, UPLC A289, triplicate",300 ± 100 µM
(ProProGly)10,mode of substrate inhibition versus α-ketoglutarate,CP4H,competitive with the cosubstrate α-ketoglutarate
same,substrate inhibition during turnover of longer collagen mimetic peptide,CP4H,Substrate inhibition had been observed
"CCOC(=O)CNC(=O)[C@@H]1CCC/C1=C\[C@@H]1CCCN1C(=O)CNS(=O)(=O)c1cccc2c(N(C)C)cccc12 [Compound 3, dansylGPtransPGOEt]",IC50,human CP4H1 [1],410 ± 30 µM
same,inhibition of catalysis by human CP4H,human CP4H1 [1],inhibitors of catalysis by human CP4H
same,hydroxylation of dansyl isosteres by CrP4H-1,[3],did not observe hydroxylation
same,inhibition of CrP4H-1,[4],served as inhibitors of CrP4H-1

# From article PMC5225157 (Biochemistry, 2016)
